Measurements as given in patent publication US6410597B1, “Hydroxyalkyl amide analogs of ceramide” (Virginia Commonwealth University, priority 2000, dated 2002).
Entries after “also recorded” stand apart in the source; their conditions may differ.

Assays:
RT2 cells = experiment: MTS proliferation assay of malignant glioma cells; assay type: cell-based, rat; conditions: RT2, 6 days; S16 100 μM, S18 100 or 200 μM
Method: (§1) FIGS. 5A, 5B and 5C. MTS proliferation assay of in vitro brain tumor cells (malignant glioma) treated with structural analogues of ceramic. (•) control; (∘) S16, 100 μM; (▾) S18, 200 μM; (∇) S18, 100 μM. 5A: U87 cells (6 days); 5B: RT2 cells (6 days); 5C: T98 cells (5 days).
(§2) Murine neuroblastoma x rat glioma NG108-15 and murine neuroblastoma x rat dorsal root ganglion F-11 cells were kindly provided by Drs. Robert Ledeen (New Jersey School of Medicine, Newark, N.J.) and Glyn Dawson (University of Chicago, Chicago, Ill.), respectively. PC12 (rat adrenal pheochromocytoma, ATCC CRL 1721) cells were purchased from the American Type Culture Collection (Manassas, Va.). U87 and T98 human glioma cells were purchased from the American Type Culture Collection (Manassas, Va.). RT2 rat glioma cells were a gift.
(§3) CU87, T98 or RT2 malignant glioma cells (750/well) were plated onto 96-well plates and allowed to grow for 5-6 days in the presence of the ceramic analogues S16, S18 or B16, or control media. The CellTiter96® Aqueous One cell proliferation assay (Promega, Inc.) was used to quantify glioma cell proliferation. In this assay, the amount of formazan product (490 nm absorbance) made from the conversion of [3-(,5-dimethyl-2-yl)-5-(3-carboxymethoxyphenyl)-2-(4-sulfophenyl)-2H-tetrazolium, inner salt (MTS) by dehydrogenase enzymes of metabolically active cells is directly proportional to the number of living cells in culture.
(§4) The effect of the compounds S16, S18, and B16 on the ability of U87, RT2 and T98 glioma cells to proliferate in vitro was investigated as described in Methods and the results are presented in FIGS. 5A, 5B and 5C, respectively.

T98 cells = experiment: MTS proliferation assay of malignant glioma cells; assay type: cell-based, human; conditions: T98, 5 days; S16 100 μM, S18 100 or 200 μM
Method: as §1, §2, §3, §4

U87 cells = experiment: MTS proliferation assay of malignant glioma cells; assay type: cell-based, human; conditions: U87, 6 days; S16 100 μM, S18 100 or 200 μM
Method: as §1, §2, §3, §4

[1] = test system: Neuroblastoma cells (NG108-15 or F-11); experiment: Effect of alkyl chain length on apoptotic potential of N-acylated compounds; assay type: cell-based; conditions: 30% confluence, overnight, various concentrations
Method: (§5) Apoptosis was analyzed by DNA fragmentation, in situ terminal nucleotidyl transferase assay, and staining of condensed chromatin with Hoechst dye 33258 as described elsewhere (Ji et al., 1995; Bieberich et al., 1999) and as further outlined below. The degree of cell death was monitored by determination of the number of floating cells and cells stained with 0.4% trypan blue (Wang et al., 1999).
Neuroblastoma cells (NG108-15 or F-11) were grown to 30% confluence and incubated overnight with various concentrations of N-acyl compounds containing carbon chains with 8, 16 and 18 carbons, as well as C16 ethanolamine. The floating cells were harvested from the medium and the amount of cellular protein determined for calculation of dead cells. In addition, cell death was quantified by staining with trypan blue. The attached cells were stained with Hoechst dye 33258 for calculation of apoptotic cells with condensed chromatin. The number of apoptotic cells was determined by counting 100 stained cells in 20 different areas on tissue culture dishes from three independent experiments.
The effect of alkyl chain length on the apoptotic potential of S16 and two compounds differing only in the length of the alkyl chains, S8 (8 carbons)and S18 (18 carbons) was investigated as described in Methods. Also, the contribution of the second β-hydroxymethyl group of S16 was analyzed by comparison with the effect of C16 EA (C16 ethanolamine) on apoptosis. […] As such, the preferred length is 12-20 carbons.

NG108-15 cells [2] = experiment: Cell density-dependent DNA fragmentation (laddering); assay type: cell-based, murine neuroblastoma x rat glioma; conditions: 100 μM S16, 15 hours; 30% confluent compared with 100% confluent cells
Method: as §5
(§6) The dependence of the rate of S16 induced apoptosis of NG108-15 cells on cell density was investigated as described in methods and the results are given in FIG. 3. […] This observation was confirmed by determination of cell density-dependent DNA fragmentation (laddering) upon incubation with S16. Cells were incubated with 100 μM S16 for 15 hours.

F-11 cells [3] = experiment: Alteration of ceramic and sphingolipid levels (HPTLC) upon incubation with S16; assay type: cell-based, murine neuroblastoma x rat dorsal root ganglion
Excerpt: as §2
(§7) Lipids were prepared and analyzed by HPTLC as described previously (Freischutz et al., 1997).
(§8) NG108-15 or F-11 cells were incubated with 100 μM S16 overnight and endogenous ceramic analyzed by HPTLC of neutral lipids corresponding to 200 μg of cellular protein applied per lane. The HPTLC plate was developed in CHCl3/HOAc (9:1), v/v) and sphingolipids stained with cupric acetate/phosphoric acid reagent. Levels of ceramic, sphingomyelin, and neutral lipids were determined by densitometric analysis and comparison with various amounts of standard lipids. […] However, the concentration of ceramic in F-11 and NG108-15 cells at 20% confluence was elevated by about 50-80%.

NG108-15 cells [4] = experiment: as above; assay type: cell-based, murine neuroblastoma x rat glioma
Excerpt: as §2, §7, §8

[5] = General toxicity during in vivo treatment; conditions: up to a total of 200 mg/kg/day, treatment for 14 days
Method: (§9) The intraperitoneal administration of ceramic analogs started one day after grafting and was performed twice per day with 0.7 ml of 2 mM S16 or 4 mM S18 corresponding to 50-100 mg/kg per mouse. The compounds were predissolved in dimethylsulfoxide (DMSO) at a maximum concentration of 250 mM and then serially diluted to 2 mM S16 or 4 mM S18 in 20% bovine serum albumin (BSA), 500 μM sodium stearate, 0.9% sodium chloride.
(§10) Athymic mice were grafted with neuroblastoma tumors by subcutaneous injection and treated by intraperitoneal or intratumoral injection of S16 as described in Methods. Control mice received no treatment, or treatment with C-16 EA. […] Furthermore, the first measurable tumors appeared 2 days later in mice treated with S16 than in control mice.

NG108-15 cells [6] = experiment: Dependence of S16 induced apoptosis on cell density; assay type: cell-based, murine neuroblastoma x rat glioma; conditions: 100 μM S16 overnight; cell density below 20% or above 50%
Method: as §5
Cells were grown to varying degrees of confluence (100%=1.0×10^5 cells/cm^2) and then incubated overnight with 100 μM S16. The floating cells were harvested from the medium and the amount of cellular protein determined for calculation of dead cells. In addition, cell death was quantified by staining with trypan blue. The attached cells were stained with Hoechst dye 33258 for calculation of apoptotic cells with condensed chromatin. The number of apoptotic cells was determined by counting 100 stained cells in 20 different areas on tissue culture dishes from three independent experiments.
as §6

PC12 cells = experiment: Dependence of apoptosis on cell differentiation (Hoechst dye 33258 staining); assay type: cell-based, rat; conditions: 24 hours; undifferentiated vs forskolin-differentiated PC12 cells
Excerpt: as §2, §5
The dependence of apoptosis upon differentiation of cells was analyzed by incubating undifferentiated PC12 cells and PC12 cells which had been induced to differentiate with S16 for 24 hours. Differentiation was induced by preincubation with 10 μM forskolin for 48 hrs. The extent of apoptosis was determined by staining with Hoechst dye 33258.
The apoptotic potential of S16 with respect to cell differentiation was investigated as described in Methods.

[7] = test system: NG108-15 or F-11 neuroblastoma tumors; experiment: In vivo tumor model in athymic mice; parameters: species or system athymic NU/NU mice
Method: A total of 1×10^6 NG108-15 or F-11 cells in 200 μl of phosphate buffered saline (PBS) was subcutaneously injected into each side of athymic NU/NU mice (Harlan) for generation of an in vivo brain tumor model in mouse skin. The resulting tumors were treated either intraperitoneally or by direct intratumor injection of ceramic analogs. Tumor growth rates and treatment results were the same within experimental error regardless of whether NG108-15 or F-11 cells were used.
Tumor growth was monitored by caliper measurement. The tumor volume was calculated by the formula: tumor size [mm^3]=(tumor width [mm])^2×tumor length [mm].
as §9
The intratumoral administration of ceramic analogs was initiated when tumor size was 30-50 mm^3 and consisted of daily injections of a 10-fold concentrated analog solution prepared as described above for S16 or of 2 mM B16 in 0.9% sodium chloride. The final concentration was calculated to be 200 μM when applied in a volume of 10% of the tumor size. Tumor volume was measured and calculated as described above.
as §10, with “mice. […]” for “mice.”
FIG. 9. […] The tumor volume was determined by caliper measurement and was about 4 ml for the mouse on the left side (untreated for 10 days) and 2 ml for the mouse on the right side (treated for 14 days).

F-11 cells [8] = experiment: Cell density-dependent DNA fragmentation (laddering); assay type: cell-based, murine neuroblastoma x rat dorsal root ganglion; conditions: 100 μM S16, 15 hours; 30% confluent compared with 100% confluent cells
[9] = 100 μM S16, 100% confluent cells
[10] = 100 μM S16 overnight, cells at 20% confluence

Question: Which cellular proliferation (RT2 cells) does the source give for `CCCCCCCCCCCCCCCC(=O)N(CCO)CCO` [B16, N,N-bis(2-hydroxyethyl) palmitamide] here?
Answer: Its cellular proliferation is “marked decrease in cellular proliferation; also recorded: virtually eliminating the proliferation”.

Question: And the cellular proliferation (T98 cells)?
Answer: The cellular proliferation was “marked decrease in cellular proliferation; also recorded: virtually eliminating the proliferation”.

Question: What about the cellular proliferation (U87 cells) of the same compound?
Answer: The cellular proliferation was “marked decrease in cellular proliferation; also recorded: virtually eliminating the proliferation”.

Question: With `CCCCCCCCCCCCCCCC(=O)NCCO` [C16 EA, N-palmitoyl ethanolamine, reference compound] as the compound, how does the apoptotic potential [1] read?
Answer: Its apoptotic potential is “almost no apoptosis”.

Question: Which “laddering of 200-base pair fragments” value (NG108-15 cells [2]) does the source give for `CCCCCCCCCCCCCCCC(=O)NC(CO)CO` [S16, N-palmitoyl serinol] here?
Answer: Its value is “increased markedly”.

Question: And the cellular proliferation (RT2 cells)?
Answer: Its cellular proliferation is “marked decrease in cellular proliferation”.

Question: And the “alteration of endogenous ceramic” value (F-11 cells [3]; [9])?
Answer: The value was “no significant alteration”.

Question: What about the “alteration of the glycosphingolipid composition” value (F-11 cells [3]; 100 μM S16 overnight) of the same compound?
Answer: The value was “no detectable alteration”.

Question: And the “alteration of the level of sphingomyelin” value (F-11 cells [3]; 100 μM S16 overnight)?
Answer: Its value is “no detectable alteration”.

Question: What about the “concentration of ceramic elevated” value (F-11 cells [3]; [10]) of the same compound?
Answer: Its value is 50-80%.

Question: What about the “alteration of endogenous ceramic” value (NG108-15 cells [4]; [9]) of the same compound?
Answer: Its value is “no significant alteration”.

Question: What about the “alteration of the glycosphingolipid composition” value (NG108-15 cells [4]; 100 μM S16 overnight) of the same compound?
Answer: The value was “no detectable alteration”.

Question: What about the “alteration of the level of sphingomyelin” value (NG108-15 cells [4]; 100 μM S16 overnight) of the same compound?
Answer: The value was “no detectable alteration”.

Question: And the “concentration of ceramic elevated” value (NG108-15 cells [4]; [10])?
Answer: Its value is 50-80%.

Question: And the “effects of general toxicity” value [5]?
Answer: The value was “No effects of general toxicity were observable”.

Question: What about the apoptotic potential [1] of the same compound?
Answer: The apoptotic potential was “optimal”.

Question: What about the degree of apoptosis (NG108-15 cells [6]) of the same compound?
Answer: Its degree of apoptosis is “markedly decreased”.

Question: What about the cellular proliferation (T98 cells) of the same compound?
Answer: The cellular proliferation was “marked decrease in cellular proliferation”.

Question: What about the cellular proliferation (U87 cells) of the same compound?
Answer: Its cellular proliferation is “marked decrease in cellular proliferation”.

Question: What about the “apoptosis (staining with Hoechst dye)” value (PC12 cells) of the same compound?
Answer: The value was “only undifferentiated cells showed the typical staining”.

Question: And the “final size of the tumors relative to untreated or C16-EA treated mice” value ([7]; intraperitoneal or intratumoral injection)?
Answer: Its value is 30-35%.

Question: What about the “delay of appearance of first measurable tumors versus control mice” value ([7]; mice treated with S16) of the same compound?
Answer: Its value is 2 days.

Question: What about the “laddering of 200-base pair fragments” value (F-11 cells [8]) of the same compound?
Answer: Its value is “increased markedly”.

Question: What does the source list for `CCCCCCCC/C=C\CCCCCCCC(=O)NC(CO)CO` [S18, N-oleoyl serinol]?
Answer: cellular proliferation (RT2 cells): marked decrease in cellular proliferation; also recorded: virtually eliminating the proliferation; apoptotic potential [1]: optimal; cellular proliferation (T98 cells): marked decrease in cellular proliferation; also recorded: virtually eliminating the proliferation; cellular proliferation (U87 cells): marked decrease in cellular proliferation; also recorded: virtually eliminating the proliferation; tumor volume (caliper measurement) ([7]; F-11 grafts, intra-peritoneal 0.7 ml of 4 mM twice a day for 14 days, untreated mouse about 4 ml at 10 days): ~2 mL
